Results on three molecules are retold here after article PMC8745314, “Novel Tetrazole-Based Antimicrobial Agents Targeting Clinical Bacteria Strains: Exploring the Inhibition of Staphylococcus aureus DNA Topoisomerase IV and Gyrase” (International Journal of Molecular Sciences, 2021).

In assay [1] the test system is standard bacteria strains. As to the kind of experiment: MIC ranges over the panel of standard strains. It is filed as cell-based. How it is done:
All synthesized compounds were tested in vitro against a set of bacteria, including representative standard Gram-positive and Gram-negative rods. Compounds were screened for their minimal inhibitory concentrations (MICs). […] These three compounds were also found to be good inhibitors of the growth of Gram-negative rods: […] The antimicrobial assays were conducted using reference strains of bacteria derived from international microbe collections: American Type Culture Collection (ATCC) and National Collection of Type Culture (NCTC). The following standard strains of bacteria were used: Gram-positive-Staphylococcus aureus NCTC 4163, Staphylococcus aureus ATCC 25923, Staphylococcus aureus ATCC 6538, Staphylococcus aureus ATCC 29213, Staphylococcus epidermidis ATCC 12228, Staphylococcus epidermidis ATCC 35984, Gram-negative: Escherichia coli ATCC 25922, Pseudomonas aeruginosa ATCC 15442. Clinical strains of bacteria used in this study: Gram-positive: Staphylococcus epidermidis 5253, Staphylococcus epidermidis 4243, Staphylococcus aureus […], Staphylococcus aureus […] and Gram-negative: Escherichia coli 520, Escherichia coli 600, Klebsiella pneumoniae 510 and Pseudomonas aeruginosa 659 were obtained from the collection of the Department of Pharmaceutical Microbiology, Medical University of Warsaw, Poland and they were isolated from different biological materials taken from the patients hospitalized in the Warsaw Medical University hospitals. Antimicrobial activity was examined by the minimal inhibitory concentration (MIC) method under standard procedures provided by CLSI with some modifications. MIC was determined by the two-fold serial broth microdilution method in 96-well microtitration plates using Mueller-Hinton II broth medium (Becton Dickinson, Franklin Lakes, NJ, USA). The final inoculum of all studied bacteria was 10^6 CFU/mL (colony forming unit per milliliter). The stock solution of tested compounds was prepared in dimethyl sulfoxide (DMSO) and diluted to a maximum of 1% of solvent content with a sterile medium.

In the next assay the target is S. aureus DNA gyrase (Staphylococcus aureus, UniProt P0A0K8+P20831). Put plainly: DNA gyrase supercoiling assay. It is filed as biochemical. The note with it: pBR322, read-out: IC50 ± S.E.M. for DNA Gyrase (converted). The protocol: (§1) Description related to conducted biological studies including cell culture, suitable conditions, and methodology was presented in our previous paper.
S. aureus DNA gyrase, sequence (P0A0K8 whole entry): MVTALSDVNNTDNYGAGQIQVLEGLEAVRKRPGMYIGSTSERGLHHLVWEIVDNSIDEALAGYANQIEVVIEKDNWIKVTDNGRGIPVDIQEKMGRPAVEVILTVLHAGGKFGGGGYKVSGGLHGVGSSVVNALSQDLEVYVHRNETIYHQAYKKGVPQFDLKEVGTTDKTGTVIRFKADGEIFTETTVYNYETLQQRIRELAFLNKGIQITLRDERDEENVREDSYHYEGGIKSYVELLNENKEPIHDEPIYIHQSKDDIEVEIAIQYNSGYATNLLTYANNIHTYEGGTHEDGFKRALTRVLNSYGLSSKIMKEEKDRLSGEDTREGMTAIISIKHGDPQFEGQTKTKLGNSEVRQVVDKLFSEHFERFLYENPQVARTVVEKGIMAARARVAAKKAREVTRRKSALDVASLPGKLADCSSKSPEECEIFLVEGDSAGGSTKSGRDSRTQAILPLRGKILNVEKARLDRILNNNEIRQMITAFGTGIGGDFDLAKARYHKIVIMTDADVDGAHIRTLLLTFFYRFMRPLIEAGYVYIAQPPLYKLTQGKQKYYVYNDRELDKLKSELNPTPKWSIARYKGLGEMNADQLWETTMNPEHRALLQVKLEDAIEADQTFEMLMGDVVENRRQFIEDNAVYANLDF
S. aureus DNA gyrase, sequence (P20831 whole entry): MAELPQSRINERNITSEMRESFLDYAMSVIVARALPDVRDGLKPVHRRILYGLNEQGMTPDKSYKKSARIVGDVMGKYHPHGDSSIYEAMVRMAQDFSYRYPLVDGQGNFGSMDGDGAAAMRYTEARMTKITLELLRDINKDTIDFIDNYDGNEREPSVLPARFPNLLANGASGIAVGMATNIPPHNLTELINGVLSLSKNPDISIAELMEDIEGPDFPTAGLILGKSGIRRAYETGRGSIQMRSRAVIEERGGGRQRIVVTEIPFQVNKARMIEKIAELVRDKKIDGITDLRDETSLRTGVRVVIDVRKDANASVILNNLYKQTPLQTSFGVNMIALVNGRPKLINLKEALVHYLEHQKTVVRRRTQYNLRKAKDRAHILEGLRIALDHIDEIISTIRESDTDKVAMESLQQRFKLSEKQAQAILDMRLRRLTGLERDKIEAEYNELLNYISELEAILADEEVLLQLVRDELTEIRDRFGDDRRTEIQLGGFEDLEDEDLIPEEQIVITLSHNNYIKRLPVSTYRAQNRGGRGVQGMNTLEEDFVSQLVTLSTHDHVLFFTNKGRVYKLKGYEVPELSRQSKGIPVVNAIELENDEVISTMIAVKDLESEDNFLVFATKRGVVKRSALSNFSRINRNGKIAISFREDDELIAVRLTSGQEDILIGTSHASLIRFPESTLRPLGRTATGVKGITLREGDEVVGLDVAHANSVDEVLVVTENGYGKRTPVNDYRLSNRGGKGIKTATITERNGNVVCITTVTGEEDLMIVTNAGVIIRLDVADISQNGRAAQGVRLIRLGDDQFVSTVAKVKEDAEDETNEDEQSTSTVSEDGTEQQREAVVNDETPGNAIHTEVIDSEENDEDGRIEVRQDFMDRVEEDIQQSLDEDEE
Figure 2 The influence of tested compounds on S. aureus DNA gyrase activity. Decreasing amounts of 1, 2, or 3 were incubated with supercoiled pBR322 plasmid DNA (500 ng) and run-on agarose gel. Lane 1: S. aureus DNA gyrase assay with DMSO (control). Lane: 2–5: compound 3 at concentrations 64, 32, 8, 2 μg/mL, respectively. Lane: 6–9: compound 2 at concentrations 64, 32, 8, 2 μg/mL, respectively. Lane: 10–13: compound 1 at concentrations 64, 32, 8, 2 μg/mL, respectively.

The target of assay [2] is S. aureus topoisomerase IV (Staphylococcus aureus, UniProt P0C1S7+P0C1U9). As to the kind of experiment: Topoisomerase IV decatenation assay. Format: biochemical. The note with it: decatenation of kinetoplast DNA, read-out: IC50 ± S.E.M. for Topoisomerase IV (converted). How it is done:
as §1
Figure 1 The effect of tested compounds on S. aureus topoisomerase IV activity. Decreasing amounts of 1, 2, or 3 were incubated with 200 ng kinetoplast DNA and run-on agarose gel. Lane: 1–5: compound 3 at concentrations 64, 32, 8, 2, 0.5 μg/mL, respectively. Lane: 6–10: compound 2 at concentrations 64, 32, 8, 2, 0.5 μg/mL, respectively. Lane: 11–15: compound 1 at concentrations 64, 32, 8, 2, 0.5 μg/mL, respectively.

The subject of assay [3] is standard and clinical Gram-positive and Gram-negative bacterial strains. Put plainly: MIC range over standard and clinical strains (abstract). Format: cell-based. How it is done: Eleven novel imide-tetrazoles were synthesized. In the initial stage of research, in silico structure-based pharmacological prediction was conducted. All compounds were screened for antimicrobial activity using standard and clinical strains. Within the studied group, compounds 1–3 were recognized as leading structures with the most promising results in antimicrobial studies. […] Additionally, all three inhibited the growth of all clinical Staphylococci panels: Staphylococcus aureus (T5592; T5591) and Staphylococcus epidermidis (5253; 4243) with MIC values of 0.8 μg/mL. Selected compounds were examined in topoisomerase IV decatenation assay and DNA gyrase supercoiling assay, followed by suitable molecular docking studies to explore the possible binding modes. […] The compounds 1–3 proposed here provide a promising basis for further exploration towards novel antimicrobial drug candidates.
The antimicrobial assays were conducted using reference strains of bacteria derived from international microbe collections: American Type Culture Collection (ATCC) and National Collection of Type Culture (NCTC). The following standard strains of bacteria were used: Gram-positive—Staphylococcus aureus NCTC 4163, Staphylococcus aureus ATCC 25923, Staphylococcus aureus ATCC 6538, Staphylococcus aureus ATCC 29213, Staphylococcus epidermidis ATCC 12228, Staphylococcus epidermidis ATCC 35984, Gram-negative: Escherichia coli ATCC 25922, Pseudomonas aeruginosa ATCC 15442. […] MIC was determined by the two-fold serial broth microdilution method in 96-well microtitration plates using Mueller–Hinton II broth medium (Becton Dickinson, Franklin Lakes, NJ, USA). […]

Setting [4] is: Gram-negative rods: E. coli and P. aeruginosa (standard strains).
Where [5] appears, read: against standard Gram-positive Staphylococci.

S. aureus topoisomerase IV, sequence (P0C1S7 whole entry): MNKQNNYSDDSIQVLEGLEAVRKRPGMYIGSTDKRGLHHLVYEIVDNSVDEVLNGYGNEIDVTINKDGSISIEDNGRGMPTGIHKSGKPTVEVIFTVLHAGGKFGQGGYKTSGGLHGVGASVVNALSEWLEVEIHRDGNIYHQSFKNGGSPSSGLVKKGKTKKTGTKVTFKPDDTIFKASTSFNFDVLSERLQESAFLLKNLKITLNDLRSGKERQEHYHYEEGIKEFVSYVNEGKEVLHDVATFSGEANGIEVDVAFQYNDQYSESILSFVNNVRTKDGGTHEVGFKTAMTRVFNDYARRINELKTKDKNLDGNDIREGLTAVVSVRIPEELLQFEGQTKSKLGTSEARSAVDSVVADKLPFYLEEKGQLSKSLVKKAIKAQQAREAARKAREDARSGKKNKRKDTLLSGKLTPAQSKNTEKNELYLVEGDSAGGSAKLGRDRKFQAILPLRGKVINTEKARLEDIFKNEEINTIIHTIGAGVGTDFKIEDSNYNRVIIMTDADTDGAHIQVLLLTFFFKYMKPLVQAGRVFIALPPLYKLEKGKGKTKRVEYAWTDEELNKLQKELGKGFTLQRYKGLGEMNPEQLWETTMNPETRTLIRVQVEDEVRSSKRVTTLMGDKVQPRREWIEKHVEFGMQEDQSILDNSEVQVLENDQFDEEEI
S. aureus topoisomerase IV, sequence (P0C1U9 whole entry): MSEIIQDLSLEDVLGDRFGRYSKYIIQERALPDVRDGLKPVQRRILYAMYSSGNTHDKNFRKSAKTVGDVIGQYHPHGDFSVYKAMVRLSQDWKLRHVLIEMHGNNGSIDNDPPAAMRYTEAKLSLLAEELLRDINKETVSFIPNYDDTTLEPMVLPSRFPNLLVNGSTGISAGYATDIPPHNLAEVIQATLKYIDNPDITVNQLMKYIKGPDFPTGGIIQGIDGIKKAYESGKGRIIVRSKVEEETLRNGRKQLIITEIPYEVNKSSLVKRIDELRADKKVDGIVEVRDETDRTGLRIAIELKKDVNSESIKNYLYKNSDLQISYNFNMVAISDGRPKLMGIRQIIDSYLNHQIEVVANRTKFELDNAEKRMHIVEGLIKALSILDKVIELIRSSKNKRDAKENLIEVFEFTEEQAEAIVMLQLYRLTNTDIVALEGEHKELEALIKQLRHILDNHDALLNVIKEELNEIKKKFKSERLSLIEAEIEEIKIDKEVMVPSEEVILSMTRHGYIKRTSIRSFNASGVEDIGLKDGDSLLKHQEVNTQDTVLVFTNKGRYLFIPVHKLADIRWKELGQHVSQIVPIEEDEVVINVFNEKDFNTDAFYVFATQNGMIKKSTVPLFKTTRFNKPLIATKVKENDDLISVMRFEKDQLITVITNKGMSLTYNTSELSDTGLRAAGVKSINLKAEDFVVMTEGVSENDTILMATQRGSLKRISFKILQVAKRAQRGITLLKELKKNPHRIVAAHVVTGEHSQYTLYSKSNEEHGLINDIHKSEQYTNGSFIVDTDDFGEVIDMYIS

As a reminder, the IC50 is the concentration that inhibits the measured activity by half. With `CC1=C(C)C2(C)CC1(C)C1C(=O)N(Nc3nnnn3-c3cccc(C(F)(F)F)c3)C(=O)C12` (stereo not drawn) [Compound 1, 4,5,6,7-Tetramethyl-2-((1-(3-(trifluoromethyl)phenyl)-1H-tetrazol-5-yl)amino)-3a,4,7,7a-tetrahydro-1H-4,7-methanoisoindole-1,3(2H)-dione], the “MIC values, range” value in assay [1] (setting [4]) lay within 0.4 to 25.6 µg/mL; in assay [1] (setting [5]), 0.1 to 3.2 µg/mL; in assay [3] it was 0.8 to 3.2 µg/mL. Further, the concentration for half-maximal inhibition (IC50) at S. aureus DNA gyrase was 71.8 µM; in assay [2], 142 µM.
The corresponding values for `CC1=C(C)C2(C)CC1(C)C1C(=O)N(Nc3nnnn3-c3ccccc3Cl)C(=O)C12` (stereo not drawn) [Compound 2, 2-((1-(2-Chlorophenyl)-1H-tetrazol-5-yl)amino)-4,5,6,7-tetramethyl-3a,4,7,7a-tetrahydro-1H-4,7-methanoisoindole-1,3(2H)-dione] are 0.4 to 25.6 µg/mL, 0.1 to 3.2 µg/mL, 0.8 to 3.2 µg/mL, 90.9 µM and 141 µM.
For `CC1=C(C)C2(C)CC1(C)C1C(=O)N(Nc3nnnn3-c3ccccc3Br)C(=O)C12` (stereo not drawn) [Compound 3, 2-((1-(2-Bromophenyl)-1H-tetrazol-5-yl)amino)-4,5,6,7-tetramethyl-3a,4,7,7a-tetrahydro-1H-4,7-methanoisoindole-1,3(2H)-dione], in that order: 0.4 to 25.6 µg/mL, 0.1 to 3.2 µg/mL, 0.8 to 3.2 µg/mL, 99.3 µM and 134 µM.
